Columns and labels:
Lewis rats = assay: Toxicity / body weight of recipients (Example 1); assay type: in vivo; conditions: when FK506 (0.3 mg/kg BW) was added, 12 days follow up
Procedure: (§1) In this study, recipients were administered the following immunosuppressive drugs: anti-CD40L mAb AH.F5 (Biogen, Inc., Cambridge, Mass., U.S.A.; 12 mg/kg BW, administered i.p. on day—1, 0, 1, 7, and then twice weekly); non-depleting anti-CD4 mAb RIB 5/2 (20 mg/kg BW, administered i.p. on day—1, 0, 1, 2, 3, 5, and then twice weekly); Ha4/8, a non-specific control to anti-CD40L (12 mg/kg BW, administered i.p. on day—1, 0, 1, 7, and then twice weekly); and FK-506 (Prograf, Fujisawa, Inc.; diluted to 1.25 mg/ml in sterile water, 0.3 mg/kg BW, administered i.m. daily from day—2, i.e., 2 days prior to transplant).
Control animals increased on average 15% in weight. All antibody treated animals (alone or in combination, but without FK506) increased weight parallel to untreated controls. […] This toxicity is significant, considering that the follow up was only 12 days and that the dose of FK506 (0.3 mg/kg BW) is equal or lower than in studies reporting no toxicity.

[1] = system: pig islet xenograft in Lewis rats; assay: Immunohistochemical analysis of pig islet xenograft, non-diabetic recipients (Example 1); assay type: in vivo; design: key to Insulin staining of graft: 0 = absent; + = single cell only; ++ = cell groups; +++ = large cell groups; key to OX33 (B cells) leukocytic infiltration (IHC) / ED1 (CD68) leukocytic infiltration (IHC) / CD3 (Tcells) leukocytic infiltration (IHC) / CD8 leukocytic infiltration (IHC) / CD4 leukocytic infiltration (IHC): 0 = absent; + = single or few; ++ = moderate; +++ = plenty; conditions: non-diabetic Lewis rats, 2,000 IE pig islets, day +12 post transplant
Description: Pancreata were removed from donor outbred female pigs, >2 years old, by standard surgical technique. Following removal, pancreata were perfused with Liberase HI (Roche Diagnostics Corp., Indianapolis, Ind., U.S.A., Cat. No. 1666720) for intraductal distension. Islet cells were dissociated from the perfused pancreata by the automated method. Cleaved islets were separated from non-islet tissue by continuous OptiPrep gradients (Accurate Chemical and Scientific Corp., Westbury, N.Y., U.S.A., Cat. No. AN-1030061) on a COBE 2991 cell separator (Gambro BCT International, Lakewood, Colo., U.S.A.). The resulting free floating, purified islet cells were cultured in M199 medium supplemented with 20% donor pig serum for 48 hours at 37° C.
Transplantation was conducted by standard surgical technique. Briefly, the recipient animals, non-diabetic inbred male Lewis rats weighing 250-270 grams, were anesthetized with Telazol 0.20 mg/kg BW, administered i.m. In addition, the analgesic buprinorphine was administered s.c. to the recipient animals. Transplantation was conducted by making a left flank incision on the recipient, into which 2,000 donor islet equivalents (IE) were injected under the left kidney capsule via PE-50 tubing according to standard procedure.
as §1
Animals were sacrificed by intracardiac exsanguination after ether anesthesia on day +12 post transplant for histological analysis of the graft. Kidneys bearing xenografts were harvested, snap frozen in liquid nitrogen and stored at −70° C.
The following primary Abs were used for immunohistochemical analysis: W3/24 (anti-CD4; available from Pharmingen) W3/13 (anti-CD3; available from Pharmingen); OX-8 (anti-CD8; available from Pharmingen); NK1.2.3 (anti-NK cell; available from Pharmingen); OX-33 (anti-B cell; available from Serotec); ED1 (anti-CD68/macrophages; available from Serotec); and insulin from Dako. The immunohistochemical analysis was visualized by an avidin-biotin-peroxidase complex method and AEC as chromogen. In the case of a positive immunoreaction, a red-brown precipitate developed.

SMILES: C=CC[C@@H]1/C=C(\C)C[C@H](C)C[C@H](OC)[C@H]2O[C@@](O)(C(=O)C(=O)N3CCCC[C@H]3C(=O)O[C@H](/C(C)=C/[C@@H]3CC[C@@H](O)[C@H](OC)C3)[C@H](C)[C@@H](O)CC1=O)[C@H](C)C[C@@H]2OC [FK, FK-506]
- body weight lost (Lewis rats): around 5%
- CD3 (Tcells) leukocytic infiltration (IHC) [1]: ++
- CD4 leukocytic infiltration (IHC) [1]: ++
- CD8 leukocytic infiltration (IHC) [1]: +
- ED1 (CD68) leukocytic infiltration (IHC) [1]: +
- Insulin staining of graft [1]: ++
- OX33 (B cells) leukocytic infiltration (IHC) [1]: +

Reference: patent US20030170239A1, “Immunotherapeutic method to prevent islet cell rejection” (priority 2000, published 2003)
